In US7662820B2, “Dipterinyl calcium pentahydrate (DCP) and therapeutic methods based thereon” (SanRX Pharmaceuticals, Inc., priority 2006, dated 2010):

What was measured:
[1] = test system: MDA-MB-231 human tumor xenographs; assay: Antitumor efficacy in nude mice with MDA-MB-231 human tumor xenographs; type: in vivo, athymic nude (nu/nu) mice; settings: for anti tumor efficacy compared with original CaPterin, (1:4 mol:mol) calcium pterin / inhibition of MDA-MB-231 xenograph growth (Relative Tumor Volume): oral gavage once daily, FIG. 1; for inhibition of MDA-MB-231 xenograph growth (Relative Tumor Volume): nude mice, versus untreated control
From the text: FIGS. 1A and 1B (with SEMs): Twenty-nine athymic nude (nu/nu) female mice, ages 3-4 weeks, were inoculated with 10×10^6 MDA-MB-231 cancer cells subcutaneously into the right flank of each mouse. […] Four mice were assigned as controls. Four mice with outlying tumor sizes or non-tumor takes were subsequently excluded. […] The control group was untreated.
Cell Line Propagation and Inoculation: The MDA-MB-231 human breast tumor cell lines were supplied by SRI International (Menlo Park, Calif.) and propagated using standard in vitro cell expansion methods. Briefly, cells were grown in L-15 media from Gibco (Cat. No. 11415-064) supplemented with 2 mM L-Glutamine and 10% Fetal Bovine Serum (FBS). The cells were cultured in an incubator with 5% C02, 37.50C, and 80% humidity. Cells were harvested with 0.25% (w/v) Trypsin-0.03% (w/v) EDTA solution. Cells were prepared for injection by standard methods to appropriate concentrations. Animals were temporarily restrained but not anesthetized for the inoculation of the tumor cells. Animals were subcutaneously injected with the tumor cells in a 100-200 μl volume.
Control groups were untreated. Daily dosing was for 7 days per week. Animals were restrained but not anesthetized for oral dosing.
Tumor Growth Rate Measurements: Each animal was individually tracked for tumor growth by external caliper measurements of protruding tumor. Primary tumor sizes were measured using calipers and an approximate tumor volume calculated using the formula 1/2 (a×b2), where b was the smaller of two perpendicular diameters.
For each group, the mean and standard error of the mean (SEM) of the ratio V/Vo, Relative Tumor Volume (RTV), were plotted as a function of treatment time after inoculation. V0 was the tumor volume at Day 0, when treatment began. Time course statistical analyses based upon repeated measures ANOVA models were used (StatView SE+Graphics, v 1.03).

[2] = nude mice treated with DCP, FIG. 3
Procedure: Twenty-nine athymic nude were each injected subcutaneously with 10×10^6 MDA-MB-231 cancer cells into the right flank. When tumors reached 3-5 mm in size, the mice were divided into five treatment groups of five each and a control group of four mice. Four of these with outlying tumor sizes or non-tumor takes were excluded shortly after treatment began: one each from the (1:4 mol:mol) calcium pterin group, the (1:2 mol:mol) calcium pterin group, the DCP (69 mg/kg/day) group, and one from the control group. Experimental groups were treated by oral gavage once daily with the indicated test suspensions or solutions. Control groups were untreated. Daily dosing was for 7 days per week. Animals were restrained but not anesthetized for oral dosing. Tumors were measured twice weekly with calipers and body weights taken twice weekly on the day of tumor measurements. Blood was collected from all animals via cardiac puncture at termination (after 70 to 98 days of treatment) and processed to EDTA plasma for analysis.

[3] = test system: tumor; settings: in vivo; cited from earlier work
[4] = test system: sarcoma; settings: mice; cited from earlier work

Compound: Nc1nc([O-])c2nccnc2n1.Nc1nc([O-])c2nccnc2n1.[Ca+2] [DCP, dipterinyl calcium pentahydrate]
- anti tumor efficacy compared with original CaPterin, (1:4 mol:mol) calcium pterin ([1]; DCP at 23 mg/kg/day): significantly greater anti tumor efficacy
- anti tumor efficacy compared with original CaPterin, (1:4 mol:mol) calcium pterin ([1]; DCP at 69 mg/kg/day): comparable efficacy
- inhibition of MDA-MB-231 xenograph growth (Relative Tumor Volume) [1]: significantly inhibit
- inhibition of MDA-MB-231 xenograph tumors compared with (1:4 mol:mol) calcium pterin [CaPterin] ([1]; oral, dose not stated (conclusion)): significantly greater
- weight loss [2]: no significant weight loss

Compound: Nc1nc2[nH]c(=O)cnc2c(=O)[nH]1 [Isoxanthopterin]
- tumor growth [3]: inhibit tumor growth

Compound: Nc1nc(=O)c2[nH]c(=O)cnc2[nH]1 [Xanthopterin]
- sarcoma growth [4]: inhibit sarcoma growth

Compound: O.O.[Ca+2].[Cl-].[Cl-] [calcium chloride dihydrate, reference compound]
- inhibition of MDA-MB-231 xenograph growth (Relative Tumor Volume) [1]: significantly inhibit
